From PubChem BioAssay AID1918945 (Molecular Pharmacology Branch, DTP, NCI, 2023)

Test system: 883617-216-R-J1-PDC complex spheroid viability
Test: Anticancer human tumor 883617-216-R-J1-PDC patient-derived bladder carcinoma cell line growth inhibition
Settings: for IC50: curve of first compound; for viability, T/C: stronger effect = lower value
Outline: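 Multicellular complex spheroids of tumor cells with human endothelial cells (HUVEC) and mesenchymal stem cells; the LSD1 inhibitor iadademstat was combined with standard-of-care or investigational agents. Top concentration at or near clinical Cmax, half-log dilutions; final DMSO ≤0.25%.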

[1] = second compound 0.1 µM, first compound 0.0316 µM
[2] = second compound 0.1 µM, first compound 0.1 µM
[3] = second compound 0.1 µM, first compound 0.316 µM
[4] = second compound 0.1 µM, first compound 1 µM
[5] = second compound 0.316 µM, first compound 0.0316 µM
[6] = second compound 0.316 µM, first compound 0.1 µM
[7] = second compound 0.316 µM, first compound 0.316 µM
[8] = second compound 0.316 µM, first compound 1 µM
[9] = second compound 1 µM, first compound 0.0316 µM
[10] = second compound 1 µM, first compound 0.1 µM
[11] = second compound 1 µM, first compound 0.316 µM
[12] = second compound 1 µM, first compound 1 µM
[13] = second compound 3.16 µM, first compound 0.0316 µM
[14] = second compound 3.16 µM, first compound 0.1 µM
[15] = second compound 3.16 µM, first compound 0.316 µM
[16] = second compound 3.16 µM, first compound 1 µM
[17] = second compound 10 µM, first compound 0.0316 µM
[18] = second compound 10 µM, first compound 0.1 µM
[19] = second compound 10 µM, first compound 0.316 µM
[20] = second compound 10 µM, first compound 1 µM
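Further: exposure lasted seven days after three days of spheroid growth.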
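Wherever viability, T/C is given: 100% = DMSO vehicle control luminescence.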

COc1ccc([C@@H](O)c2cc(-c3ncnc4cc(N5CCOCC5)ccc34)c(F)cc2Cl)nn1 + NC1CC1c1ccc(-c2cccc(O)c2)cc1 showed an IC50 (second compound 0.1 µM) of 877 nM, an IC50 (second compound 0.316 µM) of 1030 nM and an IC50 (second compound 1 µM) of 902 nM. For the same compound, the IC50 (second compound 3.16 µM) was 712 nM, the IC50 (second compound 10 µM) was 304 nM and the viability, T/C [1] was 111%. For the same compound, the viability, T/C [2] was 102%, the viability, T/C [3] was 71.5% and the viability, T/C [4] was 46.1%. It also gave a viability, T/C (second compound 0.1 µM, first compound 3.16 µM) of 30.6%, a viability, T/C (second compound 0.1 µM, first compound 10 µM) of 15.1% and a viability, T/C [5] of 109%. It also gave a viability, T/C [6] of 93.3%, a viability, T/C [7] of 74.4% and a viability, T/C [8] of 48.8%. It also gave a viability, T/C (second compound 0.316 µM, first compound 3.16 µM) of 31.5%, a viability, T/C (second compound 0.316 µM, first compound 10 µM) of 15.3% and a viability, T/C [9] of 113%. The viability, T/C [10] was 98.3%, the viability, T/C [11] was 75% and the viability, T/C [12] was 43.8%. For the same compound, the viability, T/C (second compound 1 µM, first compound 3.16 µM) was 32.7%, the viability, T/C (second compound 1 µM, first compound 10 µM) was 15.2% and the viability, T/C [13] was 116%. For the same compound, the viability, T/C [14] was 93.8%, the viability, T/C [15] was 58.2% and the viability, T/C [16] was 47.2%. For the same compound, the viability, T/C (second compound 3.16 µM, first compound 3.16 µM) was 27%, the viability, T/C (second compound 3.16 µM, first compound 10 µM) was 14.3% and the viability, T/C [17] was 88%. The viability, T/C [18] was 71.9%, the viability, T/C [19] was 42.1% and the viability, T/C [20] was 39%. It also gave a viability, T/C (second compound 10 µM, first compound 3.16 µM) of 21.8% and a viability, T/C (second compound 10 µM, first compound 10 µM) of 12.4%.

Nc1ncn(C2CC(O)C(CO)S2)c(=O)n1 (stereo not given) + NC1CC1c1ccc(-c2cccc(O)c2)cc1 showed an IC50 (second compound 0.1 µM) of 27.6 nM, an IC50 (second compound 0.316 µM) of 40.7 nM and an IC50 (second compound 1 µM) of 33.9 nM. For the same compound, the IC50 (second compound 3.16 µM) was 24.5 nM, the IC50 (second compound 10 µM) was 18.5 nM and the viability, T/C (second compound 0.1 µM, first compound 0.000949 µM) was 115%. For the same compound, the viability, T/C (second compound 0.1 µM, first compound 0.003 µM) was 97.1%, the viability, T/C (second compound 0.1 µM, first compound 0.00949 µM) was 67.2% and the viability, T/C (second compound 0.1 µM, first compound 0.03 µM) was 49.5%. The viability, T/C (second compound 0.1 µM, first compound 0.0949 µM) was 37.6%, the viability, T/C (second compound 0.1 µM, first compound 0.3 µM) was 29.5% and the viability, T/C (second compound 0.316 µM, first compound 0.000949 µM) was 119%. The viability, T/C (second compound 0.316 µM, first compound 0.003 µM) was 89.5%, the viability, T/C (second compound 0.316 µM, first compound 0.00949 µM) was 77.9% and the viability, T/C (second compound 0.316 µM, first compound 0.03 µM) was 51.3%. It also gave a viability, T/C (second compound 0.316 µM, first compound 0.0949 µM) of 38.1%, a viability, T/C (second compound 0.316 µM, first compound 0.3 µM) of 30.5% and a viability, T/C (second compound 1 µM, first compound 0.000949 µM) of 106%. The viability, T/C (second compound 1 µM, first compound 0.003 µM) was 101%, the viability, T/C (second compound 1 µM, first compound 0.00949 µM) was 64% and the viability, T/C (second compound 1 µM, first compound 0.03 µM) was 57.5%. For the same compound, the viability, T/C (second compound 1 µM, first compound 0.0949 µM) was 36%, the viability, T/C (second compound 1 µM, first compound 0.3 µM) was 29.4% and the viability, T/C (second compound 3.16 µM, first compound 0.000949 µM) was 92.8%. For the same compound, the viability, T/C (second compound 3.16 µM, first compound 0.003 µM) was 95.8%, the viability, T/C (second compound 3.16 µM, first compound 0.00949 µM) was 64.2% and the viability, T/C (second compound 3.16 µM, first compound 0.03 µM) was 47.1%. It also gave a viability, T/C (second compound 3.16 µM, first compound 0.0949 µM) of 38.7%, a viability, T/C (second compound 3.16 µM, first compound 0.3 µM) of 26.3% and a viability, T/C (second compound 10 µM, first compound 0.000949 µM) of 78.4%. The viability, T/C (second compound 10 µM, first compound 0.003 µM) was 76.7%, the viability, T/C (second compound 10 µM, first compound 0.00949 µM) was 56.7% and the viability, T/C (second compound 10 µM, first compound 0.03 µM) was 45%. It also gave a viability, T/C (second compound 10 µM, first compound 0.0949 µM) of 36.6% and a viability, T/C (second compound 10 µM, first compound 0.3 µM) of 33.1%.

For O=C(C=Cn1cnc(-c2cc(C(F)(F)F)cc(C(F)(F)F)c2)n1)NNc1cnccn1 + NC1CC1c1ccc(-c2cccc(O)c2)cc1, the IC50 (second compound 0.1 µM) was 6.13 nM, the IC50 (second compound 0.316 µM) was 5.37 nM and the IC50 (second compound 1 µM) was 5.18 nM. The IC50 (second compound 3.16 µM) was 5.05 nM, the IC50 (second compound 10 µM) was 4.37 nM and the viability, T/C (second compound 0.1 µM, first compound 0.00316 µM) was 76.8%. The viability, T/C (second compound 0.1 µM, first compound 0.01 µM) was 28.8%, the viability, T/C [1] was 23.8% and the viability, T/C [2] was 17.6%. It also gave a viability, T/C [3] of 15.6%, a viability, T/C [4] of 15.6% and a viability, T/C (second compound 0.316 µM, first compound 0.00316 µM) of 65.9%. It also gave a viability, T/C (second compound 0.316 µM, first compound 0.01 µM) of 31.3%, a viability, T/C [5] of 19.1% and a viability, T/C [6] of 14.8%. For the same compound, the viability, T/C [7] was 16%, the viability, T/C [8] was 14.3% and the viability, T/C (second compound 1 µM, first compound 0.00316 µM) was 66.5%. It also gave a viability, T/C (second compound 1 µM, first compound 0.01 µM) of 28.1%, a viability, T/C [9] of 18.4% and a viability, T/C [10] of 15.9%. It also gave a viability, T/C [11] of 16.3%, a viability, T/C [12] of 15.5% and a viability, T/C (second compound 3.16 µM, first compound 0.00316 µM) of 65.1%. It also gave a viability, T/C (second compound 3.16 µM, first compound 0.01 µM) of 28.1%, a viability, T/C [13] of 17.5% and a viability, T/C [14] of 16%. The viability, T/C [15] was 14.6%, the viability, T/C [16] was 14.3% and the viability, T/C (second compound 10 µM, first compound 0.00316 µM) was 60%. The viability, T/C (second compound 10 µM, first compound 0.01 µM) was 24.8%, the viability, T/C [17] was 18.2% and the viability, T/C [18] was 15.1%. It also gave a viability, T/C [19] of 15.4% and a viability, T/C [20] of 15.8%.
